How the values were obtained:
foxtail, giant [1] = assay: Test A preemergence; type: in vivo, Setaria faberii; conditions: preemergence
Outline: (§1)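 Scoring was visual, on a scale where 100 means complete control and 0 means no effect, comparing treated with untreated plants around 10 days post-application. Compounds in surfactant-containing non-phytotoxic solvent were sprayed onto soil preemergence or onto one- to two-leaf seedlings (2–10 cm) postemergence.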

foxtail, giant [2] = assay: Test A postemergence; type: in vivo, Setaria faberii
Outline: as §1

morningglory = assay: Test A postemergence; type: in vivo, Ipomoea spp.; conditions: Postemergence
Outline: as §1

ducksalad = assay: Test B flood; type: in vivo, Heteranthera limosa; conditions: 250 g ai/ha, visual rating on 0 to 100 scale (0 no effect, 100 complete control), 13 to 15 days
Outline: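 Paddy-water application: seedlings at 2-leaf stage, flood depth 3 cm maintained for the test duration. Evaluation after 13–15 days in the greenhouse by eye relative to controls; 0–100 scale.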

crabgrass, large = assay: Test C preemergence; type: in vivo, Digitaria sanguinalis; conditions: preemergence
Outline: (§2)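 Seeds sown in loam–sand blend and treated preemergence with test chemicals in non-phytotoxic solvent with surfactant; postemergence plants in peat-based medium, treated at 2–18 cm (1- to 4-leaf stage). Greenhouse 13 to 15 days, then visual rating versus controls, 0 (no effect) to 100 (complete control).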

foxtail, giant [3] = assay: Test C preemergence; type: in vivo, Setaria faberii; conditions: preemergence
Outline: as §2

waterhemp [4] = assay: Test C preemergence; type: in vivo, Amaranthus rudis; conditions: preemergence
Outline: as §2

galium = assay: Test C postemergence; type: in vivo, Galium aparine
Outline: as §2

foxtail, giant [5] = assay: Test C postemergence; type: in vivo, Setaria faberii
Outline: as §2

johnsongrass = assay: Test C postemergence; type: in vivo, Sorghum halepense
Outline: as §2

waterhemp [6] = assay: Test C postemergence; type: in vivo, Amaranthus rudis; conditions: postemergence
Outline: as §2

oat, wild = assay: Test C postemergence; type: in vivo, Avena fatua
Outline: as §2

chickweed = assay: Test C postemergence; type: in vivo, Stellaria media
Outline: as §2

[7] = 31 g ai/ha, visual rating, scale 0 to 100 (0 no effect, 100 complete control), 13 to 15 days
[8] = 62 g ai/ha, scale 0 to 100 (0 no effect, 100 complete control), 13 to 15 days
[9] = 125 g ai/ha, 13 to 15 days, scale 0 to 100, 0 = no effect, 100 = complete control
[10] = 250 g ai/ha, scale 0 to 100, 0 is no effect, 100 is complete control
[11] = Postemergence, 31 g ai/ha, visually evaluated after 13 to 15 days
[12] = postemergence, 62 g ai/ha, scale 0 to 100
[13] = postemergence, 250 g ai/ha, scale 0 to 100 (0 no effect, 100 complete control)
[14] = postemergence, 125 g ai/ha, scale 0 to 100, 0 no effect, 100 complete control

CCCNC(=O)c1cc(OCC)n(Cc2ccnc(C(F)(F)F)c2)n1 [Compound 187]
Foxtail, Giant plant response rating (0 to 100 scale) (foxtail, giant [1]; 125 g ai/ha, visual injury approx. 10 days after treatment): 100 | Foxtail, Giant plant response rating (foxtail, giant [1]; 500 g ai/ha, visual injury after approx. 10 days, 0 to 100 scale (0 no effect, 100 complete control)): 100 | Foxtail, Giant plant response rating (foxtail, giant [2]; Postemergence, 500 g ai/ha, 0 to 100 scale (0 no effect, 100 complete control)): 90 | Foxtail, Giant plant response rating (foxtail, giant [2]; postemergence, 125 g ai/ha, about 10 days, visual rating on 0 to 100 scale (0 no effect, 100 complete control)): 90 | Morningglory plant response rating (morningglory; 125 g ai/ha, 0 to 100 scale, 0 no effect, 100 complete control): 40 | Morningglory plant response rating (morningglory; 500 g ai/ha, 0 to 100 scale (0 no effect, 100 complete control)): 100 | Plant response rating, Ducksalad (ducksalad): 90 | Crabgrass, Large plant response rating (crabgrass, large; [7]): 100 | Crabgrass, Large plant response rating (crabgrass, large; [8]): 100 | Plant response rating, Crabgrass, Large (crabgrass, large; [9]): 100 | Crabgrass, Large plant response rating (crabgrass, large; [10]): 100 | Foxtail, Giant plant response rating (foxtail, giant [3]; [7]): 100 | Foxtail, Giant plant response rating (foxtail, giant [3]; [8]): 100 | Plant response rating, Foxtail, Giant (foxtail, giant [3]; [9]): 100 | Foxtail, Giant plant response rating (foxtail, giant [3]; [10]): 100 | Waterhemp plant response rating (waterhemp [4]; [7]): 100 | Waterhemp plant response rating (waterhemp [4]; [8]): 100 | Plant response rating, Waterhemp (waterhemp [4]; [9]): 100 | Waterhemp plant response rating (waterhemp [4]; [10]): 100 | Plant response rating (scale of 0 to 100 where 0 is no effect and 100 is complete control), Galium (galium; [11]): 60 | Galium plant response rating (galium; [12]): 80 | Plant response rating, Galium (galium; [13]): 90 | Plant response rating, Galium (galium; [14]): 85 | Plant response rating (scale of 0 to 100 where 0 is no effect and 100 is complete control), Foxtail, Giant (foxtail, giant [5]; [11]): 5 | Foxtail, Giant plant response rating (foxtail, giant [5]; [12]): 10 | Plant response rating, Foxtail, Giant (foxtail, giant [5]; [13]): 70 | Plant response rating, Foxtail, Giant (foxtail, giant [5]; [14]): 45 | Plant response rating (scale of 0 to 100 where 0 is no effect and 100 is complete control), Johnsongrass (johnsongrass; [11]): 0 | Johnsongrass plant response rating (johnsongrass; [12]): 5 | Plant response rating, Johnsongrass (johnsongrass; [13]): 25 | Plant response rating, Johnsongrass (johnsongrass; [14]): 5 | Plant response rating, Waterhemp (waterhemp [6]; 250 g ai/ha, scale 0 to 100 (0 no effect, 100 complete control)): 95 | Waterhemp plant response rating (waterhemp [6]; scale 0 to 100): 70 | Plant response rating (scale of 0 to 100 where 0 is no effect and 100 is complete control), Oat, Wild (oat, wild; [11]): 10 | Oat, Wild plant response rating (oat, wild; [12]): 15 | Plant response rating, Oat, Wild (oat, wild; [13]): 50 | Plant response rating, Oat, Wild (oat, wild; [14]): 30 | Plant response rating (scale of 0 to 100 where 0 is no effect and 100 is complete control), Chickweed (chickweed; [11]): 98 | Chickweed plant response rating (chickweed; [12]): 70 | Plant response rating, Chickweed (chickweed; [13]): 85 | Plant response rating, Chickweed (chickweed; [14]): 80

Reference: US20150105252A1, “SUBSTITUTED PYRAZOLES AS HERBICIDES” (E I DU PONT DE NEMOURS AND COMPANY, priority 2013, published 2015)
